Data published in article PMC8424372 (Journal of Pharmaceutical Analysis, 2020).
Where two headings read alike, the source gives them in different places.

Legend:
[1] = type: in vivo, human; conditions: for Shape of plasma concentration-time profile: after oral Gumiganghwal-tang tablets (9.6 g), humans; for AUC(0-inf) / Cmax / Tmax / Vd/F / half-life: male, human, po, 9.6 g; for Detection in human plasma: after oral Gumiganghwal-tang tablets at maximum daily dose (9.6 g)
[2] = Freeze-thaw stability in human plasma; type: in vitro ADME; conditions: −80 °C/25 °C, mean ± SD, n = 5, %

| Structure (SMILES) | Shape of plasma concentration-time profile [1] | AUC(0-inf) ([1]; plasma) | Cmax ([1]; plasma) | Tmax ([1]; plasma) | half-life ([1]; plasma) | Freeze-thaw stability (3 cycles) ([2]; spiked conc. 2 ng/mL) | Freeze-thaw stability (3 cycles) ([2]; spiked conc. 400 ng/mL) | Detection in human plasma [1] | also measured |
| --- | --- | --- | --- | --- | --- | --- | --- | --- | --- |
| CC1(C)O[C@H]1COc1c2ccoc2cc2oc(=O)ccc12 [Oxypeucedanin, oxypeucedanin] | double peaks | 0.449 ± 0.103 µg·h/mL | 0.00446 ± 0.00129 µg/mL | 8.25 ± 2.07 h | 70.5 ± 10.6 h | 100.16 ± 1.88% | 99.31 ± 2.36% | – | Vd/F ([1]; plasma): 275 ± 56.4 L |
| CC(C)=CC(O)C/C(C)=C/COc1c2ccoc2cc2oc(=O)ccc12 (stereo not drawn) [Notopterol, notopterol] | – | – | – | – | – | 97.79 ± 3.42% | 99.46 ± 2.59% | not detected | – |
| O=C(O)[C@H]1O[C@@H](Oc2cc3oc(-c4ccccc4)cc(=O)c3c(O)c2O)[C@H](O)[C@@H](O)[C@@H]1O [Baicalin, baicalin] | double peaks | – | – | – | – | 99.53 ± 2.03% | 97.95 ± 3.22% | – | AUC(0-inf) ([1]; in vivo): 805 ± 121 µg·h/mL; Cmax ([1]; in vivo): 34.3 ± 5.22 µg/mL; Tmax ([1]; in vivo): 7.99 ± 1.52 h; Vd/F ([1]; in vivo): 2.5 ± 0.21 L; half-life ([1]; in vivo): 14.4 ± 3.98 h |
| O=c1cc(-c2ccccc2)oc2cc(O)c(O)c(O)c12 [Baicalein, baicalein] | double peaks | 0.54 ± 0.122 µg·h/mL | 0.0527 ± 0.0212 µg/mL | 0.78 ± 0.23 h | 7.78 ± 1.91 h | 96.92 ± 5.31% | 100.00 ± 2.30% | – | – |
| CC1(C)[C@@H](O[C@H]2O[C@H](C(=O)O)[C@@H](O)[C@H](O)[C@H]2O[C@@H]2O[C@H](C(=O)O)[C@@H](O)[C@H](O)[C@H]2O)CC[C@]2(C)[C@H]3C(=O)C=C4[C@@H]5C[C@@](C)(C(=O)O)CC[C@]5(C)CC[C@@]4(C)[C@]3(C)CC[C@@H]12 [Glycyrrhizin, glycyrrhizin] | double peaks | 0.0676 ± 0.0153 µg·h/mL | 0.00216 ± 0.00104 µg/mL | 8.04 ± 1.16 h | 28.8 ± 4.24 h | 97.58 ± 4.38% | 99.43 ± 2.90% | – | Vd/F ([1]; plasma): 5860 ± 1090 L |
| OCC1=C[C@@H](O)[C@@H]2C=CO[C@@H](O[C@@H]3O[C@H](CO)[C@@H](O)[C@H](O)[C@H]3O)[C@H]12 [Aucubin, aucubin] | – | – | – | – | – | 97.78 ± 4.39% | – | not detected | Freeze-thaw stability (3 cycles) ([2]; spiked conc. 500 ng/mL): 100.15 ± 2.79% |
| C=CCc1ccc(OC)c(OC)c1 [Methyl eugenol, methyl eugenol] | – | – | – | – | – | – | 101.10 ± 2.84% | not detected | Freeze-thaw stability (3 cycles) ([2]; spiked conc. 5 ng/mL): 98.48 ± 2.51% |
| C=C1CCC[C@]2(C)C[C@]3(O)OC(=O)C(C)=C3C[C@@H]12 [Atractylenolide III, atractylenolide III] | double peaks | 0.417 ± 0.0993 µg·h/mL | 0.0175 ± 0.0056 µg/mL | 4.33 ± 1.21 h | 24.2 ± 5.29 h | 99.57 ± 2.04% | 96.73 ± 4.82% | – | Vd/F ([1]; plasma): 26.2 ± 6.26 L |
| OC[C@H]1O[C@@H](O[C@@H]2OC=C[C@H]3[C@H](O)[C@@H]4O[C@]4(CO)[C@@H]23)[C@H](O)[C@@H](O)[C@@H]1O [Catalpol, catalpol] | – | – | – | – | – | 101.28 ± 2.95% | – | not detected | Freeze-thaw stability (3 cycles) ([2]; spiked conc. 500 ng/mL): 100.03 ± 2.84% |
| CC(C)=CCOc1c2occc2cc2ccc(=O)oc12 [Imperatorin, imperatorin] | – | – | – | – | – | 98.44 ± 2.60% | 101.28 ± 2.93% | not detected | – |
| CC1(C)[C@@H](O)CC[C@]2(C)[C@H]3C(=O)C=C4[C@@H]5C[C@@](C)(C(=O)O)CC[C@]5(C)CC[C@@]4(C)[C@]3(C)CC[C@@H]12 [18-beta-glycyrrhetinic acid] | double peaks | 0.988 ± 0.125 µg·h/mL | 0.0897 ± 0.0144 µg/mL | 6.42 ± 1.01 h | 12.1 ± 2.28 h | – | – | – | – |
| O=c1ccc2cc3ccoc3c(O)c2o1 [Xanthotoxol, xanthotoxol] | double peaks | 0.11 ± 0.0386 µg·h/mL | 0.00378 ± 0.00139 µg/mL | 4.48 ± 1.76 h | 8.98 ± 3.01 h | 102.24 ± 4.31% | 98.83 ± 2.95% | – | – |
